Active and inactive are the calls of the source. Cut-off read from the data, not from the text of the source, for most assays here: actives have a measured Kd and inactives only a lower limit.
Legend:
[1] = molecular target: Dual specificity protein kinase CLK1 (Homo sapiens, UniProt P49759)
[2] = molecular target: T1, Cyclin-G-associated kinase (Homo sapiens, UniProt O14976)
T1 sequence (O14976 whole entry): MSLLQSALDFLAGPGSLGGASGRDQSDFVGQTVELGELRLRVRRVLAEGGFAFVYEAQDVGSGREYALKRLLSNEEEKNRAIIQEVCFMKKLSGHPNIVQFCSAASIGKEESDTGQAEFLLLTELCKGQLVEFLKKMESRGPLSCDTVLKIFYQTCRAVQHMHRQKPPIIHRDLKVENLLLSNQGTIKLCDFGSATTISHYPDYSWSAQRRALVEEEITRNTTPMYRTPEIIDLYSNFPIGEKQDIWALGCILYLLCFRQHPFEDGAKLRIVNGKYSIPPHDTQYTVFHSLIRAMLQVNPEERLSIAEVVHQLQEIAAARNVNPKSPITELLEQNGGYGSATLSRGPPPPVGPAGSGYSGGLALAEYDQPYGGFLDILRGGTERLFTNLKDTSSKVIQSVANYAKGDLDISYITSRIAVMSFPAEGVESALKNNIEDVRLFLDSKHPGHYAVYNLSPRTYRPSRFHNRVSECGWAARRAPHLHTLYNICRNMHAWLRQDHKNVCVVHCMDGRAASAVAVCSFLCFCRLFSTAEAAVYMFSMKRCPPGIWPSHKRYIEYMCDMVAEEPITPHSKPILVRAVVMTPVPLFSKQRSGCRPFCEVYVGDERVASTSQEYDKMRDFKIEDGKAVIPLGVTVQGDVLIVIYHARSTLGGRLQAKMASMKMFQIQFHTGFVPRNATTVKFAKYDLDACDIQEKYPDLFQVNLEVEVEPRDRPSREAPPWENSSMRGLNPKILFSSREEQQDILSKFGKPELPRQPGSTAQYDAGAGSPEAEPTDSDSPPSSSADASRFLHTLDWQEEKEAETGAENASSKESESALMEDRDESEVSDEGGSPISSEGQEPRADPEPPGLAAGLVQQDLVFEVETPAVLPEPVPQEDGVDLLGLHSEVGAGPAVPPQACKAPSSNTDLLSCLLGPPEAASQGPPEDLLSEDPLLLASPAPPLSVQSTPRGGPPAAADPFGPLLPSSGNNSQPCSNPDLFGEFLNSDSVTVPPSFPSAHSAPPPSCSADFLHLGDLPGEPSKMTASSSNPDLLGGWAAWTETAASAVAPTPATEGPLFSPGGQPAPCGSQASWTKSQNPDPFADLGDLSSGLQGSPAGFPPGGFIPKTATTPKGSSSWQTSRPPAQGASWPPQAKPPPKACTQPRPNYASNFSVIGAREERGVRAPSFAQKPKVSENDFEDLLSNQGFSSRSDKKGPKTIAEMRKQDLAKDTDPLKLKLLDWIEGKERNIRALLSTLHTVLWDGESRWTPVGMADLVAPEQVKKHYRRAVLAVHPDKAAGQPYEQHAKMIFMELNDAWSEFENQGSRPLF

[3] = molecular target: Putative heat shock protein HSP 90-beta 2 (Homo sapiens, UniProt Q58FF8)
[4] = molecular target: Mitogen-activated protein kinase 8 (Homo sapiens, UniProt P45983)
[5] = molecular target: Midasin (Homo sapiens, UniProt Q9NU22)
[6] = molecular target: T2, ATP-dependent 6-phosphofructokinase, platelet type (Homo sapiens, UniProt Q01813)
T2 sequence (Q01813 whole entry): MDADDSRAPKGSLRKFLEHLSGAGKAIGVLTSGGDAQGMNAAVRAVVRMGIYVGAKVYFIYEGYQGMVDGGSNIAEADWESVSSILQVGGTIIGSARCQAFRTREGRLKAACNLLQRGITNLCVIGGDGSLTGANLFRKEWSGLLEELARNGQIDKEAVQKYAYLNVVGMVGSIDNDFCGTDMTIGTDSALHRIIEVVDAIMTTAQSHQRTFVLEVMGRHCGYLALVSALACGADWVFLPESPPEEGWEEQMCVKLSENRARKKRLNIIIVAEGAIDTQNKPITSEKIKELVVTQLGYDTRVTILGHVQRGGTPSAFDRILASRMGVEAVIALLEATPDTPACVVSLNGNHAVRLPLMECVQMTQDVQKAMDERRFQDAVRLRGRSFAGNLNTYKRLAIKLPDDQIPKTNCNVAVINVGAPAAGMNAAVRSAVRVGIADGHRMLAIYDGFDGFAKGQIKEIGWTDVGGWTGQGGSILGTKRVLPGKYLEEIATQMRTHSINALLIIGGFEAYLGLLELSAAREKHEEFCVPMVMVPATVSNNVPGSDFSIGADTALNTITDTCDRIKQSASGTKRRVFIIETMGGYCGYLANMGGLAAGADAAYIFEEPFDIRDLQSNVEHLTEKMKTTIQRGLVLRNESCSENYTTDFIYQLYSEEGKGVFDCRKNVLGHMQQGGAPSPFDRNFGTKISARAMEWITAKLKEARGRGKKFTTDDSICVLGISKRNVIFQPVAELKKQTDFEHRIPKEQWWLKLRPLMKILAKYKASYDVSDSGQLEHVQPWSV

[7] = molecular target: cAMP-dependent protein kinase catalytic subunit beta (Homo sapiens, UniProt P22694)
[8] = molecular target: Protein kinase C beta type (Homo sapiens, UniProt P05771)
[9] = molecular target: Serine/threonine-protein kinase SIK2 (Homo sapiens, UniProt Q9H0K1)
[10] = molecular target: T3, Serine/threonine-protein kinase 4 (Homo sapiens, UniProt Q13043)
T3 sequence (Q13043 whole entry): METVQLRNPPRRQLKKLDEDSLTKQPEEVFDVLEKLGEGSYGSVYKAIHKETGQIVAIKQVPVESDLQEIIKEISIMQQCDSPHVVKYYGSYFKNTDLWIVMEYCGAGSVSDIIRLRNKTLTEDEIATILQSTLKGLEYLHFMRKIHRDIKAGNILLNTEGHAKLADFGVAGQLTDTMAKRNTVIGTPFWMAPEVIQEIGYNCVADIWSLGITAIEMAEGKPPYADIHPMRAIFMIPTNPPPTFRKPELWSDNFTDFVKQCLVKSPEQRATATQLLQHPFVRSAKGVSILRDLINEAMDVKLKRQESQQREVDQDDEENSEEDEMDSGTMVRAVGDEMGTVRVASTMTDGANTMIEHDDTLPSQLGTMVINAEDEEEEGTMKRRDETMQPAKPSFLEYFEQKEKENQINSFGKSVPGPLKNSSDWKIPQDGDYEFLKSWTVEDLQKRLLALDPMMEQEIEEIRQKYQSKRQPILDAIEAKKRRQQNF

[11] = molecular target: DNA topoisomerase 2-alpha (Homo sapiens, UniProt P11388)
Note: in the data inactive means no Kd found up to 30 µM.

Putative heat shock protein HSP 90-beta 2, sequence (Q58FF8 whole entry): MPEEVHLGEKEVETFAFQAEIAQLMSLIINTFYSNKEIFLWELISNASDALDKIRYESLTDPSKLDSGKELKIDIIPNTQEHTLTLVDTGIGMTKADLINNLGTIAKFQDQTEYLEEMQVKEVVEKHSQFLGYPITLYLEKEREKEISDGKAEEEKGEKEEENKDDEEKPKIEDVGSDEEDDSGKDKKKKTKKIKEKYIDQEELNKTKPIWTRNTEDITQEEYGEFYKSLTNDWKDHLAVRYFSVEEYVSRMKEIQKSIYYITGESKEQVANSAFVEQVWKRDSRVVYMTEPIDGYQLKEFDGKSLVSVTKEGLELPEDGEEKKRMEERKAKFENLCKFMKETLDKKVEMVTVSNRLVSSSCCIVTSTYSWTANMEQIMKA
DNA topoisomerase 2-alpha, sequence (P11388 whole entry): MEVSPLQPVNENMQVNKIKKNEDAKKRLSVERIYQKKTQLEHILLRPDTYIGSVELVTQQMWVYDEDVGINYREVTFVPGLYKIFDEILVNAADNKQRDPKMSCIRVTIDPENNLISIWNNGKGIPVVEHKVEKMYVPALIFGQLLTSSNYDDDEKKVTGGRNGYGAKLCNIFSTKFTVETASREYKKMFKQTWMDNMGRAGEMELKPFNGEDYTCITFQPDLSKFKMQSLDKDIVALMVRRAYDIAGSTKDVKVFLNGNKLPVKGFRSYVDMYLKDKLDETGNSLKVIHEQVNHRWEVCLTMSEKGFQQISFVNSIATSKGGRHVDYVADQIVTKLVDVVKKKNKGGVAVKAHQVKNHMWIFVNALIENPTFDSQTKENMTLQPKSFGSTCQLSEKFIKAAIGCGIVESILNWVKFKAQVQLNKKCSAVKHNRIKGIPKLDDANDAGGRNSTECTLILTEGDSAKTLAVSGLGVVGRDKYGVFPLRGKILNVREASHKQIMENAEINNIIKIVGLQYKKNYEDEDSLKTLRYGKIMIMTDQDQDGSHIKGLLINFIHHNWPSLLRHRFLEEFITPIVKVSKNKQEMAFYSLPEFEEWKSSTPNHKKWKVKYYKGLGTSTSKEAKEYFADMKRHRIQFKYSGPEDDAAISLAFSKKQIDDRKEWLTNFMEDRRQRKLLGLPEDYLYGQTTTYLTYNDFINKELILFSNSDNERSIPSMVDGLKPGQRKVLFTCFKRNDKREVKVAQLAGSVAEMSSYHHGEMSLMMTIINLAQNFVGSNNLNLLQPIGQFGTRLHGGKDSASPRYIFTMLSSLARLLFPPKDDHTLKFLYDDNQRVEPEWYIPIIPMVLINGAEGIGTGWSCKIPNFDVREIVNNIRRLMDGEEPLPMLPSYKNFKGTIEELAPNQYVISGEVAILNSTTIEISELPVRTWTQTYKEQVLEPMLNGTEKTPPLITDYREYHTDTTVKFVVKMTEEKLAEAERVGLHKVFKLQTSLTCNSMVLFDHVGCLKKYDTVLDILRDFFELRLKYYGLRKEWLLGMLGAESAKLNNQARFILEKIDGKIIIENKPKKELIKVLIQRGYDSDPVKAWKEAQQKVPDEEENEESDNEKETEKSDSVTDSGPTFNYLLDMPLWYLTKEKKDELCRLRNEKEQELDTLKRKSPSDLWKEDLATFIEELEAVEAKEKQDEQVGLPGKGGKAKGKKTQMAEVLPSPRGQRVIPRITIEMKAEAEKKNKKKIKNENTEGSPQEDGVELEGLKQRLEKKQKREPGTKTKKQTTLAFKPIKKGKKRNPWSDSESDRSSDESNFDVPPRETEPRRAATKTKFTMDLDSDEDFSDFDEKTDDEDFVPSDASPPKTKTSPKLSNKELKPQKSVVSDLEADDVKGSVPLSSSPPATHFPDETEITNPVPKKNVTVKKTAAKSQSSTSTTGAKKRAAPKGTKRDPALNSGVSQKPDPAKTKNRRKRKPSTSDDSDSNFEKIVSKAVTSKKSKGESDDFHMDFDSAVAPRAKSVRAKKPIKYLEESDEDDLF
Dual specificity protein kinase CLK1, sequence (P49759 whole entry): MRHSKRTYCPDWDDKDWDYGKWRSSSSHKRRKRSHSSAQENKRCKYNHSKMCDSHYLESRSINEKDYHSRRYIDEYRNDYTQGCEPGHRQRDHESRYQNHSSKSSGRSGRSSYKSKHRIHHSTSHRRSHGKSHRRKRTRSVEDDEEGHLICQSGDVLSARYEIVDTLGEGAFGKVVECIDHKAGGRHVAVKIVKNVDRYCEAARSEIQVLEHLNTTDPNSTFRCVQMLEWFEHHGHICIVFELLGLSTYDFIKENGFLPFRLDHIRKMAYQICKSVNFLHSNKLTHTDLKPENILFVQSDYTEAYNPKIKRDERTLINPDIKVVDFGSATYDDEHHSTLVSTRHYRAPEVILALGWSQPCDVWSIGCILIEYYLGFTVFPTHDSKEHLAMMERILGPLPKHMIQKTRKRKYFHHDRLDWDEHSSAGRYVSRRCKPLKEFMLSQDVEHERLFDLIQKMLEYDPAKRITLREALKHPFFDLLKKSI
Protein kinase C beta type, sequence (P05771 whole entry): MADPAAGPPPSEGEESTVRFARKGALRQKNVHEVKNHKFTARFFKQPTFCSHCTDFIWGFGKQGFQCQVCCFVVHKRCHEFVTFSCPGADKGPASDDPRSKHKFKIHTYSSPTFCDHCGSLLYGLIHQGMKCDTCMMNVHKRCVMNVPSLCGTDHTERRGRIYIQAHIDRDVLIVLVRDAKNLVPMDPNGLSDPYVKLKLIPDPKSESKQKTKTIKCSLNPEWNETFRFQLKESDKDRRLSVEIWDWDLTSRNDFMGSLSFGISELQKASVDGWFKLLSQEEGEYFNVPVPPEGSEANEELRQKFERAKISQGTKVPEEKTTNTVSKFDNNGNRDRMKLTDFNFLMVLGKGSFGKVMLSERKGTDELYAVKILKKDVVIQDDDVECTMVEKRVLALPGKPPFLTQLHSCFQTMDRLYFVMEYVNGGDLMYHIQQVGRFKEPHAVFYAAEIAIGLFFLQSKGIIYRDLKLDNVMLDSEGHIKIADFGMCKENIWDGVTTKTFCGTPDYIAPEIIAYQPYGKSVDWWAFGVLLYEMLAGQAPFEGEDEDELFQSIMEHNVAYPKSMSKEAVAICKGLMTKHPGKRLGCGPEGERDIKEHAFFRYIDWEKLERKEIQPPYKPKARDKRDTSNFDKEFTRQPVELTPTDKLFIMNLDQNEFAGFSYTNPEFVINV
Serine/threonine-protein kinase SIK2, sequence (Q9H0K1 whole entry): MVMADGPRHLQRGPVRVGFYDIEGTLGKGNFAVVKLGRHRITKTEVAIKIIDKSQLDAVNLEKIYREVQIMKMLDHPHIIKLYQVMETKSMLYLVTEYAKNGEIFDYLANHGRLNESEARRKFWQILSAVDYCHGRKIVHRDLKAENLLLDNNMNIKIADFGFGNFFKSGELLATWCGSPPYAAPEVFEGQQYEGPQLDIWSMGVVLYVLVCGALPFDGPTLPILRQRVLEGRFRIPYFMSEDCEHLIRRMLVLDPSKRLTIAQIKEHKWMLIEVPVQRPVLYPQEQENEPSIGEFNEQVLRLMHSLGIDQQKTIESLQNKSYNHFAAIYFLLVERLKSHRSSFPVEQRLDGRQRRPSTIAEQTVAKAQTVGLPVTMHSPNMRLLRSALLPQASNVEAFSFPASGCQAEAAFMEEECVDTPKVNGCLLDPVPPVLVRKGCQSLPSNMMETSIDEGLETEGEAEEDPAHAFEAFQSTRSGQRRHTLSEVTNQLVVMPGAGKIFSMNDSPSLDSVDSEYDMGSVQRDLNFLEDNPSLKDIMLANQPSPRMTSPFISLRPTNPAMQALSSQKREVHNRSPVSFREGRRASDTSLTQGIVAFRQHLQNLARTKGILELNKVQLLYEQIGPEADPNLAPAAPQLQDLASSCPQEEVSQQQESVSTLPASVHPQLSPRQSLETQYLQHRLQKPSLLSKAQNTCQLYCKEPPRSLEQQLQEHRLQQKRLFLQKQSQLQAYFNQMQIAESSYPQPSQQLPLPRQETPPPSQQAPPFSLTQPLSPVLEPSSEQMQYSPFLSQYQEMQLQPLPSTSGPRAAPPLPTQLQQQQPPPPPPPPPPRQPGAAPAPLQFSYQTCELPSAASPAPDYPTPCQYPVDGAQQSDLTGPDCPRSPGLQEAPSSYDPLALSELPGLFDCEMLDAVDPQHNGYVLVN
Mitogen-activated protein kinase 8, sequence (P45983 whole entry): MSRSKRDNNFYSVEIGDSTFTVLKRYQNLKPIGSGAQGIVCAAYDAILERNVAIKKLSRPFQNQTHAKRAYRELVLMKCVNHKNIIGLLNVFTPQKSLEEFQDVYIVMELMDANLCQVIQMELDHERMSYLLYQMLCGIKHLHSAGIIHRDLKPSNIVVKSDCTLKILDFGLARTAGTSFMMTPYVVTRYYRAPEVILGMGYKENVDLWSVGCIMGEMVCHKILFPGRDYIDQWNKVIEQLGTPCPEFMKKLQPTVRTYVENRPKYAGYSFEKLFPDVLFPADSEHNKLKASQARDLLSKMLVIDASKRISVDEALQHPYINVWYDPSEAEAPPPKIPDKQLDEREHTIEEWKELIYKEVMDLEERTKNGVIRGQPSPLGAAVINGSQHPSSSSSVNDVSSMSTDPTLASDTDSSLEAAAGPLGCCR

Row | Structure (SMILES) | Kd [1] | Kd [2] | Kd [3] | Kd [4] | Kd [5] | Kd [6] | Kd [7] | Kd [8] | Kd [9] | Kd [10] | Kd [11]
1 | CC[C@H](Nc1ncnc2[nH]cnc12)c1nc2cccc(F)c2c(=O)n1-c1ccccc1 [IDELALISIB] | > 30 µM (inactive) | > 30 µM (inactive) | > 30 µM (inactive) | > 30 µM (inactive) | > 30 µM (inactive) | > 30 µM (inactive) | > 30 µM (inactive) | > 30 µM (inactive) | > 30 µM (inactive) | > 30 µM (inactive) | > 30 µM (inactive)
2 | CN1CCC(CNc2ccc3ncc(-c4cccc(OC(F)(F)F)c4)n3n2)CC1 [SGI-1776] | > 30 µM (inactive) | 8.63 µM (active) | > 30 µM (inactive) | > 30 µM (inactive) | > 30 µM (inactive) | > 30 µM (inactive) | > 30 µM (inactive) | > 30 µM (inactive) | 6.12 µM (active) | > 30 µM (inactive) | > 30 µM (inactive)
3 | CC(C)Nc1cc(-c2c[nH]c(C(=O)N[C@H](CO)c3cccc(Cl)c3)c2)c(Cl)cn1 [ULIXERTINIB] | > 30 µM (inactive) | > 30 µM (inactive) | > 30 µM (inactive) | > 30 µM (inactive) | > 30 µM (inactive) | > 30 µM (inactive) | > 30 µM (inactive) | > 30 µM (inactive) | > 30 µM (inactive) | > 30 µM (inactive) | > 30 µM (inactive)
4 | CC[C@@H]1C(=O)N(C)c2cnc(Nc3ccc(C(=O)N[C@H]4CC[C@H](N5CCN(CC6CC6)CC5)CC4)cc3OC)nc2N1C(C)C [VOLASERTIB] | > 30 µM (inactive) | > 30 µM (inactive) | > 30 µM (inactive) | > 30 µM (inactive) | > 30 µM (inactive) | > 30 µM (inactive) | > 30 µM (inactive) | > 30 µM (inactive) | > 30 µM (inactive) | > 30 µM (inactive) | > 30 µM (inactive)
5 | CN1CC[C@@H](c2c(O)cc(O)c3c(=O)cc(-c4ccccc4Cl)oc23)[C@@H]1CO | > 30 µM (inactive) | > 30 µM (inactive) | > 30 µM (inactive) | > 30 µM (inactive) | > 30 µM (inactive) | > 30 µM (inactive) | > 30 µM (inactive) | > 30 µM (inactive) | > 30 µM (inactive) | > 30 µM (inactive) | > 30 µM (inactive)
6 | COC(=O)N[C@@H](C)CNc1nccc(-c2cn(C(C)C)nc2-c2cc(Cl)cc(NS(C)(=O)=O)c2F)n1 [ENCORAFENIB] | > 30 µM (inactive) | > 30 µM (inactive) | > 30 µM (inactive) | 1.87 µM (active) | > 30 µM (inactive) | > 30 µM (inactive) | > 30 µM (inactive) | > 30 µM (inactive) | > 30 µM (inactive) | > 30 µM (inactive) | > 30 µM (inactive)
7 | COCCNCc1ccc(-c2cc3nccc(Oc4ccc(NC(=S)NC(=O)Cc5ccc(F)cc5)cc4F)c3s2)nc1 [GLESATINIB] | > 30 µM (inactive) | > 30 µM (inactive) | > 30 µM (inactive) | > 30 µM (inactive) | > 30 µM (inactive) | > 30 µM (inactive) | > 30 µM (inactive) | > 30 µM (inactive) | > 30 µM (inactive) | > 30 µM (inactive) | > 30 µM (inactive)
8 | Cc1c(F)cc(C(=O)NC2CC2)cc1-c1ccc(C(=O)NCC(C)(C)C)cn1 [LOSMAPIMOD] | > 30 µM (inactive) | > 30 µM (inactive) | > 30 µM (inactive) | > 30 µM (inactive) | > 30 µM (inactive) | > 30 µM (inactive) | > 30 µM (inactive) | > 30 µM (inactive) | > 30 µM (inactive) | > 30 µM (inactive) | > 30 µM (inactive)
9 | CO[C@H]1C[C@@H]2CC[C@@H](C)[C@@](O)(O2)C(=O)C(=O)N2CCCC[C@H]2C(=O)O[C@H]([C@H](C)C[C@@H]2CC[C@@H](OCCO)[C@H](OC)C2)CC(=O)[C@H](C)/C=C(\C)[C@@H](O)[C@@H](OC)C(=O)[C@H](C)C[C@H](C)/C=C/C=C/C=C/1C [EVEROLIMUS] | > 30 µM (inactive) | > 30 µM (inactive) | > 30 µM (inactive) | > 30 µM (inactive) | > 30 µM (inactive) | > 30 µM (inactive) | > 30 µM (inactive) | > 30 µM (inactive) | > 30 µM (inactive) | > 30 µM (inactive) | > 30 µM (inactive)
10 | CCN1CCN(Cc2ccc(-c3cc4c(N[C@H](C)c5ccccc5)ncnc4[nH]3)cc2)CC1 [AEE-788] | > 30 µM (inactive) | > 30 µM (inactive) | > 30 µM (inactive) | > 30 µM (inactive) | > 30 µM (inactive) | > 30 µM (inactive) | > 30 µM (inactive) | > 30 µM (inactive) | 41.8 µM (active) | > 30 µM (inactive) | > 30 µM (inactive)
11 | CC(=O)Nc1cccc(-n2c(=O)n(C3CC3)c(=O)c3c(Nc4ccc(I)cc4F)n(C)c(=O)c(C)c32)c1 [TRAMETINIB] | > 30 µM (inactive) | > 30 µM (inactive) | > 30 µM (inactive) | > 30 µM (inactive) | > 30 µM (inactive) | > 30 µM (inactive) | > 30 µM (inactive) | > 30 µM (inactive) | > 30 µM (inactive) | > 30 µM (inactive) | > 30 µM (inactive)
12 | O=C(O)[C@]1(Cc2cccc(Nc3nccs3)n2)CC[C@@H](Oc2cccc(Cl)c2F)CC1 [MK-5108] | > 30 µM (inactive) | > 30 µM (inactive) | > 30 µM (inactive) | 1.15 µM (active) | > 30 µM (inactive) | > 30 µM (inactive) | > 30 µM (inactive) | > 30 µM (inactive) | > 30 µM (inactive) | 2.37 µM (active) | > 30 µM (inactive)

Source: ChEMBL document CHEMBL3991601, “The target landscape of clinical kinase drugs” (Science, 2017)
